The inhibition is how much of the control response was suppressed. A high value points to a response far below the control. As a reminder, the IC50 is the concentration that gives 50% inhibition.

15 molecules from ChEMBL document CHEMBL4673242, “Penithoketone and Penithochromones A-L, Polyketides from the Deep-Sea-Derived Fungus Penicillium thomii YPGA3” (J Nat Prod, 2020) can be followed below.

SMILES strings stand for the structures. Bounds are passed on as bounds.

Assay [1] has as its system MDA-MB-468. The assay can be described thus: Cytotoxicity against human MDA-MB-468 cells assessed as reduction in cell viability at 50 uM after 72 hrs by MTT assay relative to control. Format: functional.
Assay [2] concerns LNCaP C4-2B. The assay can be described thus: Cytotoxicity against human enzalutamide-resistant LNCaP C4-2B cells assessed as reduction in cell viability at 50 uM after 72 hrs by MTT assay relative to control. Type of assay: functional. On the technique in general: Tetrazolium assays rely on reduction of a dye to a coloured formazan, in cell work by metabolically active cells.

Assay [3] relates to MCF7. The assay can be described thus: Cytotoxicity against human MCF7 cells assessed as reduction in cell viability at 50 uM after 72 hrs by MTT assay relative to control. Format: functional.
A further assay deals with RAW264.7. Nature of the assay: Inhibition of LPS-induced NO production in mouse RAW264.7 cells at 50 uM relative to control. Format: functional.
The subject of assay [4] is LNCaP C4-2B. Nature of the assay: Cytotoxicity against human LNCaP C4-2B cells assessed as reduction in cell viability at 50 uM after 72 hrs by MTT assay relative to control. Type of assay: functional.
For assay [5], the system named is LNCaP C4-2B. The assay can be described thus: Cytotoxicity against human LNCaP C4-2B cells assessed as reduction in cell viability after 72 hrs by MTT assay. Type of assay: functional, cell-based.
Assay [6] relates to MDA-MB-468. Nature of the assay: Cytotoxicity against human MDA-MB-468 cells assessed as reduction in cell viability after 72 hrs by MTT assay. The note with it: MDA-MB-468, 72 h. Type of assay: functional, cell-based.
Assay [7] concerns MCF7. Nature of the assay: Cytotoxicity against human MCF7 cells assessed as reduction in cell viability after 72 hrs by MTT assay. Type of assay: functional, cell-based. The note with it: MCF7, 72 h.
Assay [8] has as its system LNCaP C4-2B. Nature of the assay: Cytotoxicity against human enzalutamide-resistant LNCaP C4-2B cells assessed as reduction in cell viability after 72 hrs by MTT assay. Type of assay: functional, cell-based.

As for `COC(=O)CCCCCCc1cc(=O)c2c(O)cc(O)cc2o1`, the Activity in the assay on MDA-MB-468 [1], with LNCaP C4-2B [2], in the assay with MCF7 [3] and in the assay on LNCaP C4-2B [4] was under 30% each time. The same molecule showed an inhibition at 50 µM with RAW264.7 of under 30%.

As to `COC(=O)CCCCCCc1cc(=O)c2c(OC)cc(OC)cc2o1`, the Activity in the assay with MDA-MB-468 [1], with LNCaP C4-2B [2], in the assay with MCF7 [3] and in the assay with LNCaP C4-2B [4] was under 30% throughout. The molecule also gave an inhibition at 50 µM in the assay on RAW264.7 of under 30%.

Consider `COC(=O)CCCCCCc1cc(=O)c2c(O)cc(OC)cc2o1`, for which the Activity in the assay with MDA-MB-468 [1], in the assay with LNCaP C4-2B [2], in the assay with MCF7 [3] and in the assay on LNCaP C4-2B [4] was under 30% each time. This molecule showed an inhibition at 50 µM in the assay on RAW264.7 of under 30%.

As for `COC1=C(O)C(=O)c2c(O)cccc2C1=O`, the Activity in the assay on MDA-MB-468 [1], with LNCaP C4-2B [2], in the assay with MCF7 [3] and with LNCaP C4-2B [4] was over 50% each time. In addition, the IC50 was 41 µM with LNCaP C4-2B [5], 38 µM in the assay on MDA-MB-468 [6], over 50 µM with MCF7 [7] and over 50 µM with LNCaP C4-2B [8]. This molecule had an inhibition at 50 µM in the assay with RAW264.7 of under 30%.

With `COc1cc(OC)c2c(=O)cc(CCCC/C=C/C(=O)O)oc2c1`, the Activity in the assay with MDA-MB-468 [1], with LNCaP C4-2B [2], in the assay with MCF7 [3] and with LNCaP C4-2B [4] was under 30% throughout. In addition, the inhibition at 50 µM in the assay with RAW264.7 is under 30%.

As for `COc1cc(OC)c2c(=O)cc(CCCCCCC(=O)O)oc2c1`, the Activity in the assay with MDA-MB-468 [1], in the assay with LNCaP C4-2B [2], with MCF7 [3] and in the assay with LNCaP C4-2B [4] was under 30% in each case. The inhibition at 50 µM in the assay with RAW264.7 was under 30%.

On to `COC(=O)CCCCCCc1cc(=O)c2c(OC)cc(O)cc2o1`, for which the Activity with MDA-MB-468 [1], with LNCaP C4-2B [2], with MCF7 [3] and in the assay with LNCaP C4-2B [4] was under 30% each time. This molecule gave an inhibition at 50 µM with RAW264.7 of under 30%.

As to `O=C(O)CCCCCCc1cc(=O)c2c(O)cc(O)cc2o1`, the Activity with MDA-MB-468 [1], with LNCaP C4-2B [2], with MCF7 [3] and with LNCaP C4-2B [4] was under 30% throughout. This molecule also displayed an inhibition at 50 µM in the assay with RAW264.7 of under 30%.

Consider `COC1=C(O)C(=O)c2c(O)cccc2[C@@]1(OC)[C@@H](C)C1=CC(=O)OC1`, for which the Activity in the assay with MDA-MB-468 [1], in the assay with LNCaP C4-2B [2], with MCF7 [3] and with LNCaP C4-2B [4] was over 50% throughout. Further, the IC50 in the assay on LNCaP C4-2B [5] was found to be 9.1 µM; with MDA-MB-468 [6], 15 µM; in the assay with MCF7 [7], 21 µM; with LNCaP C4-2B [8], 14 µM. This molecule also registered an inhibition at 50 µM with RAW264.7 of under 30%.

Regarding `COC(=O)CCCCc1cc(=O)c2c(OC)cc(OC)cc2o1`, the Activity in the assay with MDA-MB-468 [1], in the assay with LNCaP C4-2B [2], with MCF7 [3] and with LNCaP C4-2B [4] was under 30% in each case. The molecule further displayed an inhibition at 50 µM in the assay on RAW264.7 of under 30%.

`COC1=CC(=O)c2c(O)cccc2C1=O`: the Activity in the assay on MDA-MB-468 [1], in the assay on LNCaP C4-2B [2], in the assay on MCF7 [3] and with LNCaP C4-2B [4] was over 50% each time. The IC50 in the assay on LNCaP C4-2B [5] came to 6.4 µM; with MDA-MB-468 [6] it was 4.9 µM; in the assay on MCF7 [7], 11 µM; in the assay with LNCaP C4-2B [8], 13 µM. For the same molecule, in the assay with RAW264.7, the inhibition at 50 µM is under 30%.

Regarding `COC(=O)CCc1cc(=O)c2c(OC)cc(OC)cc2o1`, the Activity in the assay with MDA-MB-468 [1], in the assay with LNCaP C4-2B [2], in the assay with MCF7 [3] and in the assay on LNCaP C4-2B [4] was under 30% throughout. In the assay with RAW264.7, the inhibition at 50 µM was under 30%.

`COc1cc(O)c2c(=O)cc(CCCCCCC(=O)O)oc2c1`: the Activity with MDA-MB-468 [1], with LNCaP C4-2B [2], with MCF7 [3] and in the assay with LNCaP C4-2B [4] was under 30% throughout. The same molecule came in with an inhibition at 50 µM in the assay with RAW264.7 of under 30%.

As to `COC(=O)CCCc1cc(=O)c2c(OC)cc(O)cc2o1`, the Activity with MDA-MB-468 [1], in the assay on LNCaP C4-2B [2], in the assay with MCF7 [3] and with LNCaP C4-2B [4] was under 30% in each case. Further, in the assay with RAW264.7, the inhibition at 50 µM is under 30%.

As to `COc1cc(OC)c2c(=O)cc(CCCCC(=O)O)oc2c1`, the Activity in the assay with MDA-MB-468 [1], in the assay with LNCaP C4-2B [2], with MCF7 [3] and in the assay on LNCaP C4-2B [4] was under 30% each time. For the same molecule, the inhibition at 50 µM in the assay with RAW264.7 is under 30%.
